Source: PubChem BioAssay (NCI)
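These data come from cells grown in 96-well plates and exposed to compound for 48 hours at five concentrations. GI50: concentration for 50% inhibition of growth. TGI: total growth inhibition.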

What was measured:
Experiment in all cases: DTP human tumour cell line panel, 48 h
ACHN renal = tested on: ACHN renal
SR leukemia = tested on: SR leukemia
MOLT-4 leukemia = tested on: MOLT-4 leukemia
TK-10 renal = tested on: TK-10 renal
COLO 205 colon = tested on: COLO 205 colon
KM12 colon = tested on: KM12 colon
U251 CNS = tested on: U251 CNS
RPMI-8226 leukemia = tested on: RPMI-8226 leukemia
SF-539 CNS = tested on: SF-539 CNS
A498 renal = tested on: A498 renal

Cc1cn2c(/C=N/N=C(N)N)c(-c3ccncc3)nc2s1
GI50 (ACHN renal): 18.5 µM | TGI (ACHN renal): 32.5 µM | GI50 (SR leukemia): 5.3 µM | TGI (SR leukemia): 17.5 µM | GI50 (MOLT-4 leukemia): 7.74 µM | TGI (MOLT-4 leukemia): 32.2 µM | GI50 (TK-10 renal): 15 µM | TGI (TK-10 renal): 28.6 µM | GI50 (COLO 205 colon): 17.5 µM | TGI (COLO 205 colon): 33.3 µM | GI50 (KM12 colon): 5.63 µM | TGI (KM12 colon): 19.6 µM | GI50 (U251 CNS): 17.8 µM | TGI (U251 CNS): 31.6 µM

Nc1nc2c(ccc3ccccc32)s1
GI50 (RPMI-8226 leukemia): 43.8 µM | TGI (RPMI-8226 leukemia): > 100 µM | GI50 (SF-539 CNS): > 100 µM | TGI (SF-539 CNS): > 100 µM | GI50 (ACHN renal): > 100 µM | TGI (ACHN renal): > 100 µM | GI50 (MOLT-4 leukemia): 12.7 µM | TGI (MOLT-4 leukemia): > 100 µM | GI50 (TK-10 renal): 35.2 µM | TGI (TK-10 renal): > 100 µM | GI50 (A498 renal): 74.1 µM | TGI (A498 renal): > 100 µM | GI50 (COLO 205 colon): > 100 µM | TGI (COLO 205 colon): > 100 µM | GI50 (KM12 colon): > 100 µM | TGI (KM12 colon): > 100 µM | GI50 (U251 CNS): > 100 µM | TGI (U251 CNS): > 100 µM

O=C(/C(=N/Nc1ccccc1)c1ccc([N+](=O)[O-])cc1)c1ccc([N+](=O)[O-])cc1
TGI (RPMI-8226 leukemia): > 100 µM | TGI (SF-539 CNS): > 100 µM | TGI (ACHN renal): > 100 µM | TGI (SR leukemia): > 100 µM | TGI (MOLT-4 leukemia): > 100 µM | TGI (TK-10 renal): > 100 µM | TGI (COLO 205 colon): > 100 µM | TGI (KM12 colon): > 100 µM | TGI (U251 CNS): > 100 µM

Cc1cc2c(cc1CO)N1Cc3cc(C)c(CO)cc3N(C2)C1
TGI (RPMI-8226 leukemia): > 100 µM | TGI (SF-539 CNS): > 100 µM | TGI (MOLT-4 leukemia): > 100 µM | TGI (TK-10 renal): > 100 µM | TGI (COLO 205 colon): > 100 µM | TGI (KM12 colon): > 100 µM | TGI (U251 CNS): > 100 µM

c1cc[c]([Sn]([O]c2cccc3cccnc23)([O]c2cccc3cccnc23)[c]2ccccc2)cc1
GI50 (SF-539 CNS): 0.385 µM | TGI (SF-539 CNS): 1.32 µM | GI50 (ACHN renal): 0.207 µM | TGI (ACHN renal): 0.396 µM | GI50 (MOLT-4 leukemia): 0.203 µM | TGI (MOLT-4 leukemia): 0.429 µM | GI50 (TK-10 renal): 1.31 µM | TGI (TK-10 renal): 2.73 µM | GI50 (COLO 205 colon): 1.07 µM | TGI (COLO 205 colon): 2.28 µM | GI50 (U251 CNS): 0.938 µM | TGI (U251 CNS): 2.6 µM

O=C([CH-]C(=O)c1ccccc1)c1ccccc1.O=C([CH-]C(=O)c1ccccc1)c1ccccc1.O=C([CH-]C(=O)c1ccccc1)c1ccccc1.[Cl-].[Zr+4]
GI50 (RPMI-8226 leukemia): 16.6 µM | TGI (RPMI-8226 leukemia): > 100 µM | GI50 (ACHN renal): 22 µM | TGI (ACHN renal): > 100 µM | GI50 (MOLT-4 leukemia): 9.75 µM | TGI (MOLT-4 leukemia): > 100 µM | GI50 (TK-10 renal): 27.6 µM | TGI (TK-10 renal): 72.4 µM | GI50 (A498 renal): 18.7 µM | TGI (A498 renal): 58.6 µM | GI50 (COLO 205 colon): 25.7 µM | TGI (COLO 205 colon): 78 µM | GI50 (KM12 colon): 12.4 µM | TGI (KM12 colon): 56.6 µM | GI50 (U251 CNS): 12.1 µM | TGI (U251 CNS): > 100 µM

O=C(NC(=O)c1cn(CCN2CCN(C(=O)NCCCCCCNC(=O)N3CCN(CCn4cc(C(=O)NC(=O)OCc5ccccc5)c(=O)[nH]c4=O)CC3)CC2)c(=O)[nH]c1=O)OCc1ccccc1
TGI (RPMI-8226 leukemia): > 100 µM | TGI (SF-539 CNS): > 100 µM | TGI (ACHN renal): > 100 µM | TGI (MOLT-4 leukemia): > 100 µM | TGI (TK-10 renal): > 100 µM | TGI (COLO 205 colon): > 100 µM | TGI (U251 CNS): > 100 µM

O=C(CN(/C=C/C(=O)C(F)(F)F)c1ccccc1)c1ccc(Cl)cc1
GI50 (RPMI-8226 leukemia): 9.66 µM | TGI (RPMI-8226 leukemia): 43.1 µM | GI50 (SF-539 CNS): 22.7 µM | TGI (SF-539 CNS): 47 µM | GI50 (ACHN renal): 21.7 µM | TGI (ACHN renal): 56.3 µM | GI50 (MOLT-4 leukemia): 19.9 µM | TGI (MOLT-4 leukemia): 52.5 µM | GI50 (TK-10 renal): 28 µM | TGI (TK-10 renal): 88.2 µM | GI50 (A498 renal): 20.4 µM | TGI (A498 renal): 42.2 µM | GI50 (COLO 205 colon): 22.1 µM | TGI (COLO 205 colon): 49.1 µM | GI50 (KM12 colon): 15.2 µM | TGI (KM12 colon): 37.7 µM | GI50 (U251 CNS): 15.7 µM | TGI (U251 CNS): 29.5 µM
